Experiment [1] concerns the target T1, TetA(B)-Δ394–401-Thrombin-His12 (Escherichia coli, UniProt P02980, DEL394-401).
T1 construct: C-terminal truncation of residues 394-401, thrombin site and His12 tag (also printed as His10) kept, pET21b, expressed in E. coli C43, purified in LMNG
As to the kind of experiment: isothermal titration calorimetry. In kind it is binding.

Experiment [2] has as its target TetA(B)-Δ394–401-Thrombin-His12 (Escherichia coli, UniProt P02980, DEL195-199/DEL203-207). As to the kind of experiment: biochemical. From the text: isothermal titration calorimetry on TetA(B)-Δ394–401-Thrombin-His12
The target of experiment [3] is T2, TetA(B)-His10 (Escherichia coli, UniProt P02980).
T2 construct: full length (401 residues), C-terminal His10 tag kept, pET21b, expressed in E. coli C43, purified in LMNG
T2 sequence (P02980 whole entry): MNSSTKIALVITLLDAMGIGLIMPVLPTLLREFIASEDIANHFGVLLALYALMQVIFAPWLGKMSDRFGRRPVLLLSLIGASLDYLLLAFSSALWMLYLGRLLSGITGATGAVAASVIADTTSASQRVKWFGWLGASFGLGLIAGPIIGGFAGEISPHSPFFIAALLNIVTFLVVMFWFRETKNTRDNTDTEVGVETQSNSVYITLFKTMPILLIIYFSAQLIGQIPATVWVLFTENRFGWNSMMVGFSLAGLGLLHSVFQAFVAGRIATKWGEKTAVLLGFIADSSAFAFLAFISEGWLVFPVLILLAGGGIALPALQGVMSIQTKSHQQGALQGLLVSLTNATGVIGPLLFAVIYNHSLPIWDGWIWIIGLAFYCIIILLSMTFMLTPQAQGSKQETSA
The experiment can be described thus: isothermal titration calorimetry. The class given is binding. An excerpt:
isothermal titration calorimetry on TetA(B)-His10

SMILES strings stand for the structures.

Sequence of TetA(B)-Δ394–401-Thrombin-His12 (Escherichia coli, UniProt P02980, DEL195-199/DEL203-207) (P02980 1-393, stated change not applied): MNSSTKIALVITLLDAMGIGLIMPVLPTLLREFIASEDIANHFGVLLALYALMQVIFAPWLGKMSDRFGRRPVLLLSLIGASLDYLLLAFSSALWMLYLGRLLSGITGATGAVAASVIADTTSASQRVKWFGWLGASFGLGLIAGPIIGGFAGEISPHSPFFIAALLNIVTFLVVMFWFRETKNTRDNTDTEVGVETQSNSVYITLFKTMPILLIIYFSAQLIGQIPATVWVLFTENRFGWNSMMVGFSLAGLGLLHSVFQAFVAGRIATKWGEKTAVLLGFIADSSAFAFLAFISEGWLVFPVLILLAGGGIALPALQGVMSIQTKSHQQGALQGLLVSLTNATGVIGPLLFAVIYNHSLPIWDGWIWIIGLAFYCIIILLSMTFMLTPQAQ
T1 sequence (P02980 1-393, stated change not applied): as above

On to `CN(C)[C@@H]1C(=O)C(C(N)=O)=C(O)[C@@]2(O)C(=O)C3=C(O)c4c(O)cccc4[C@@](C)(O)[C@H]3C[C@@H]12` [tetracycline], for which the Kd was found to be 10 ± 2 µM in experiment [1], 17.5 ± 0.5 µM in experiment [2] and 7.3 ± 0.5 µM in experiment [3].

Source of the values: publication PMC4579554, “Isolation and characterisation of transport-defective substrate-binding mutants of the tetracycline antiporter TetA(B)” (Biochimica et Biophysica Acta, 2015).
